Results on nine compounds are retold here after ChEMBL document CHEMBL1201862, “PubChem BioAssay data set” (2004).

SMILES strings stand for the structures. Active and inactive are the calls of the source.

Experiment [1] concerns the target T1, Insulin-degrading enzyme (Homo sapiens, UniProt P14735).
T1 sequence (P14735 whole entry): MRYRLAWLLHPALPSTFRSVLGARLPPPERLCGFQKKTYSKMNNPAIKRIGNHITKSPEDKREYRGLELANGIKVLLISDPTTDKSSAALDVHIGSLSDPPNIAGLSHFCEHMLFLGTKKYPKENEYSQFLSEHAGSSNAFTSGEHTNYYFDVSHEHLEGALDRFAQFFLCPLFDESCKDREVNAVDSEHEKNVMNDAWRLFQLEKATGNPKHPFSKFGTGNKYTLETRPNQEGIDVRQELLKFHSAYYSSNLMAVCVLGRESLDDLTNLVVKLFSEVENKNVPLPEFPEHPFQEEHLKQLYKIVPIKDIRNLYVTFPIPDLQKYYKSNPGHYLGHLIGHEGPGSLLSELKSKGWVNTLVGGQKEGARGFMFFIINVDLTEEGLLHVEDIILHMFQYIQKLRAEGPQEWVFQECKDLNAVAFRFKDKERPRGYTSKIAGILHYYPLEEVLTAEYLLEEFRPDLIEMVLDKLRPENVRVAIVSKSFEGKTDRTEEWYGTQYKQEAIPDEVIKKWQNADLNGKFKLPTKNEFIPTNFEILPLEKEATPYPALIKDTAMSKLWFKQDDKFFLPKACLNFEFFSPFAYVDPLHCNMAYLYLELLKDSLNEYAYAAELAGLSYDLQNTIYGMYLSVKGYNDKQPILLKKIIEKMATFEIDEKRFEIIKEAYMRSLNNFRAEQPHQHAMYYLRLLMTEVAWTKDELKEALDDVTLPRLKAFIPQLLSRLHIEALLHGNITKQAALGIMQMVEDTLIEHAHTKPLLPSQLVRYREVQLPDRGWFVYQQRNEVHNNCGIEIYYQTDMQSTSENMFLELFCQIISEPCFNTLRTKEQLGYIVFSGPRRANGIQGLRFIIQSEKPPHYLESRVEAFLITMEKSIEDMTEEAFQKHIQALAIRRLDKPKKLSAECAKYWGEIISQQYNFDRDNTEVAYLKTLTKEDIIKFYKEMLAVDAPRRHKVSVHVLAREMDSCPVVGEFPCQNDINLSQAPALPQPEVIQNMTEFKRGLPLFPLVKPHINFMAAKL
Kind of experiment: activators of recombinant IDE enzyme, dose response, counter-screen for IDE activator project, biochemical, fluorescence polarization (AID 588681).

The subject of experiment [2] is HEK293. Kind of experiment: optical interference in Abeta FP readout, dose response, artefact control for IDE activator project, biochemical, fluorescence polarization (AID 588442). In kind it is functional, cell-based. The following applies: Homo sapiens.
Another experiment has as its target Melanocortin receptor 4 (Homo sapiens, UniProt P32245). In kind it is functional, cell-based.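 Also: Cell-based assay with luminescence read-out, confirmatory dose-response testing for agonist activity of biased ligands at MC4R; human U2OS cells with tagged receptor and beta-arrestin; potency of agonists that increase receptor coupling to beta-arrestin.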
A short description of experiment [3]: Vero E6 cell cytotoxicity, dose response, cytotoxicity control for non-replicating M. tuberculosis project, secondary assay (AID 492998). Format: functional, VeroE6. The following applies: Vero C1008.
Another experiment can be described thus: cells. In kind it is functional.
Experiment [4] deals with HEK293. Nature of the experiment: HEK cell cytotoxicity by LDH release, dose response, cytotoxicity control for IDE activator project, fluorescence, HEK cells (AID 588440).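 Also: cytotoxicity by LDH release measuring loss of membrane integrity.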 In kind it is functional, cell-based. The following applies: Homo sapiens. (In general: Release of lactate dehydrogenase indicates damage to the cell membrane.)
Experiment [5] addresses T1, Insulin-degrading enzyme. Nature of the experiment: activators of endogenous IDE in HEK cells, dose response, cell-based, fluorescence polarization (AID 588439). In kind it is functional. Background: In fluorescence polarisation assays a small probe gives low polarisation when free and higher when bound to something large.
Experiment [6] is described as follows: HepG2 cell cytotoxicity, dose response, cytotoxicity control for non-replicating M. tuberculosis project (AID 489018). The following applies: Mycobacterium tuberculosis. In kind it is functional.
In the next experiment the target is T2, X-box-binding protein 1 (Homo sapiens, UniProt P17861).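 Also: confirmatory dose-response counter-screen serving a CHOP assay.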
T2 sequence (P17861 whole entry): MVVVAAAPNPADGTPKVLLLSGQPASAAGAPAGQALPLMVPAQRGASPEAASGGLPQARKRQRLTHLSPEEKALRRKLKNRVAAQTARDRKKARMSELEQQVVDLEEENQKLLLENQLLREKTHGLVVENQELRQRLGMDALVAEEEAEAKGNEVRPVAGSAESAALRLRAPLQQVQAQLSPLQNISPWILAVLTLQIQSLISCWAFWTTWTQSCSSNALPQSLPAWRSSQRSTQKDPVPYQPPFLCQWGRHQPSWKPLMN
In kind it is functional, Cricetulus griseus.

Experiment [7] in a line: THP-1 cell cytotoxicity, dose response, cytotoxicity control for non-replicating M. tuberculosis project (AID 489025). In kind it is functional.
For experiment [8], the target named is T3, Rac GTPase-activating protein 1 (Homo sapiens, UniProt Q9H0H5).
T3 sequence (Q9H0H5 whole entry): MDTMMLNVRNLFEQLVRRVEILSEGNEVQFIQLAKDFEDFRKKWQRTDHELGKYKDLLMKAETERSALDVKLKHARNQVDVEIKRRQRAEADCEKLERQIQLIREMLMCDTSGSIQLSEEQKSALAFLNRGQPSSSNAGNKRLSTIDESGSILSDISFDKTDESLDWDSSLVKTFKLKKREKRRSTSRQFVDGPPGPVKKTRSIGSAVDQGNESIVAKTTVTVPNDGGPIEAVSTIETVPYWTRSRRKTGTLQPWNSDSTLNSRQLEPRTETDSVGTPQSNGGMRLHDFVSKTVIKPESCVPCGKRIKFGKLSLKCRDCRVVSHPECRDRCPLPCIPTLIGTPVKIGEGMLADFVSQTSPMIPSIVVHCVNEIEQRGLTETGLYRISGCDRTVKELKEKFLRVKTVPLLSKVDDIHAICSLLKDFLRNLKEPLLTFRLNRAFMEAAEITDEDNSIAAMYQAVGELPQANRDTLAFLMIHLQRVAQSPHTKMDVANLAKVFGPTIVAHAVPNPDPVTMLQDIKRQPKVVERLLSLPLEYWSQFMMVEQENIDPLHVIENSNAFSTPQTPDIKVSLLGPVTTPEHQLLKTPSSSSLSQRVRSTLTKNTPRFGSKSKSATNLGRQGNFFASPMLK
Nature of the experiment: MgcRacGAP GTPase-activating activity inhibitors, confirmation, biochemical, ADP Hunter fluorescence, primary and confirmatory (AID 624330). Format: functional.

For experiment [9], the target named is DNA (cytosine-5)-methyltransferase 1 (Homo sapiens, UniProt P26358). Kind of experiment: DNMT1 methyltransferase inhibitors, confirmation, biochemical, fluorescent molecular beacon (AID 602386). Format: functional.
For experiment [10], the target named is T4, Carboxy-terminal domain RNA polymerase II polypeptide A small phosphatase 1 (Homo sapiens, UniProt Q9GZU7).
T4 sequence (Q9GZU7 whole entry): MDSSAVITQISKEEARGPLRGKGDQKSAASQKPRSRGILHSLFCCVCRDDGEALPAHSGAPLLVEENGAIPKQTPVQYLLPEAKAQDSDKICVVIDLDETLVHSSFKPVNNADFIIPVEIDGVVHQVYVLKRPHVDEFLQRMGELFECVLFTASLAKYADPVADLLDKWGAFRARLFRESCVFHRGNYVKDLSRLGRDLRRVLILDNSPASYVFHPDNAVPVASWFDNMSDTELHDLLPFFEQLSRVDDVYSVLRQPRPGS
Nature of the experiment: inhibitors of CTDSP1, concentration-response testing, biochemical assay, absorbance-based, actives from ultra-high-throughput screening (AID 540297). Format: functional.

Experiment [11] has as its target T5, Low molecular weight phosphotyrosine protein phosphatase (Homo sapiens, UniProt P24666).
T5 sequence (P24666 whole entry): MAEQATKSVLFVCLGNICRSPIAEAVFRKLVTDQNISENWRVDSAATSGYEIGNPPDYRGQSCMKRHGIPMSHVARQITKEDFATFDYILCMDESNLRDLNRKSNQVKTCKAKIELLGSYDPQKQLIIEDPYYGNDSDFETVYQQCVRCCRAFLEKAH
Format: functional. The following applies: read-out: IC50_Mean.

For experiment [12], the target named is T5, Low molecular weight phosphotyrosine protein phosphatase. Format: functional. To be noted: read-out: IC50_Mean. This is another data set of the same source.
For experiment [13], the target named is T6, Apoptotic protease-activating factor 1 (Homo sapiens, UniProt O14727).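 Also: caspase-3 cleavage of fluorogenic Rh110 DEVD substrate downstream of apoptosome activation.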
T6 sequence (O14727 whole entry): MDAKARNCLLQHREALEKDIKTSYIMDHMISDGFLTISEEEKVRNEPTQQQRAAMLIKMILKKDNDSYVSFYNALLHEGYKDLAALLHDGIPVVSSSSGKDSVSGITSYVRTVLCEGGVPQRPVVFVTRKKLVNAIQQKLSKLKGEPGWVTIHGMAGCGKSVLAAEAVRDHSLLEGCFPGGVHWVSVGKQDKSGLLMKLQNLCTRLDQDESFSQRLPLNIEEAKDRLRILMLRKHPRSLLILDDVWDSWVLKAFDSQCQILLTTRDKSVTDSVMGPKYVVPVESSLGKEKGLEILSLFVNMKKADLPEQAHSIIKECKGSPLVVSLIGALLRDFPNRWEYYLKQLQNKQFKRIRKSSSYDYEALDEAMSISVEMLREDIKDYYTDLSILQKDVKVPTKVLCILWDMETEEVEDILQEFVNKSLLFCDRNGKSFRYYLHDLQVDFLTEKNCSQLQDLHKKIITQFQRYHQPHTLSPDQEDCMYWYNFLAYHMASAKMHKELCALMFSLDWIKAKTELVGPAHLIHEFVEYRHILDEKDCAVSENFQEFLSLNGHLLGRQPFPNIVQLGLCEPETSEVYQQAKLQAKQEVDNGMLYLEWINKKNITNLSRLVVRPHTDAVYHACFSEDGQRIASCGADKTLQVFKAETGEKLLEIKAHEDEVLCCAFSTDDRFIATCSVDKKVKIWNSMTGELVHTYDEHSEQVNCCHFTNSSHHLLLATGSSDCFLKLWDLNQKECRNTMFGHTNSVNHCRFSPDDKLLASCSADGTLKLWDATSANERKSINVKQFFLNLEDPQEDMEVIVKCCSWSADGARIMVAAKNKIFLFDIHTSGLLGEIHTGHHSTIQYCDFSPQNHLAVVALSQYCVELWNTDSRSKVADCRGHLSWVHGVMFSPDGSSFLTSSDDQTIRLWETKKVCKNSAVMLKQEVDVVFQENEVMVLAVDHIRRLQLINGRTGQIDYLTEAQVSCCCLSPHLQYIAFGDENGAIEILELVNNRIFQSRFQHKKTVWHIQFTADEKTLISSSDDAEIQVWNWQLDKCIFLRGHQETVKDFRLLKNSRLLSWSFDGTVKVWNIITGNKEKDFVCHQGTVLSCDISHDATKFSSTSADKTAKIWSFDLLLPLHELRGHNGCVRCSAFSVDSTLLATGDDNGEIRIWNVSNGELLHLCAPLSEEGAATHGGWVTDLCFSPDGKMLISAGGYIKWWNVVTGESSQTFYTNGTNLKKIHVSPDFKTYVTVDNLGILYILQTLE
Nature of the experiment: SAR analysis of small molecule Activators of Apaf-1 in a Fluorescent assay. In kind it is functional. The following applies: read-out: EC50_Mean.

Experiment [14] is described as follows: HepG2 cell cytotoxicity, dose response, cytotoxicity control for Shn3 inhibitor project, CellTiter-Glo, cherry-picked (AID 624134). Format: functional, cell-based. On the technique in general: In ATP-based viability assays light output follows the ATP content of the culture.
The next experiment deals with Protein Wnt-3a (Mus musculus, UniProt P27467). Kind of experiment: Wnt3a-driven reporter signaling inhibition, dose response, selectivity assay for Gli-SUFU antagonist project, Wnt-LIGHT cells, luminescence (AID 651570).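 Also: Wnt-LIGHT reporter cells stimulated with conditioned medium from Wnt3a-producing cells.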 Format: functional. The following applies: read-out: IC50_Mean.
The nature of experiment [15]: Shn3 3'UTR reporter inhibitors, dose response, cell-based, Clone20 osteoblasts, firefly luciferase, cherry-picked (AID 624132).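 Also: firefly luciferase luminescence from reporter carrying the Shn3 3'UTR in osteoblasts.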 Format: functional.
Experiment [16] is described as follows: control 3'UTR Renilla luciferase suppression, dose response, counter-screen for Shn3 inhibitor project, cell-based, Clone20-Shn3RL, cherry-picked (AID 624133). Format: functional.

Protein Wnt-3a, sequence (P27467 whole entry): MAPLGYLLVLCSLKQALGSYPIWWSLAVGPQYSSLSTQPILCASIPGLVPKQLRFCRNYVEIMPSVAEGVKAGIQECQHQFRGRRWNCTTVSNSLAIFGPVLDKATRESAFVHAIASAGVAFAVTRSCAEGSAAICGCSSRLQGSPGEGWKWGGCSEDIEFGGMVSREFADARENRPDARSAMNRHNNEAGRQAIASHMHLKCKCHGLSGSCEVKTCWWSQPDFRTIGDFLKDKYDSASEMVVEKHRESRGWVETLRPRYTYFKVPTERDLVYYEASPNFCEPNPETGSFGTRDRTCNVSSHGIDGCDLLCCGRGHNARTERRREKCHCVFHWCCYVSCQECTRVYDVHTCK
Melanocortin receptor 4, sequence (P32245 whole entry): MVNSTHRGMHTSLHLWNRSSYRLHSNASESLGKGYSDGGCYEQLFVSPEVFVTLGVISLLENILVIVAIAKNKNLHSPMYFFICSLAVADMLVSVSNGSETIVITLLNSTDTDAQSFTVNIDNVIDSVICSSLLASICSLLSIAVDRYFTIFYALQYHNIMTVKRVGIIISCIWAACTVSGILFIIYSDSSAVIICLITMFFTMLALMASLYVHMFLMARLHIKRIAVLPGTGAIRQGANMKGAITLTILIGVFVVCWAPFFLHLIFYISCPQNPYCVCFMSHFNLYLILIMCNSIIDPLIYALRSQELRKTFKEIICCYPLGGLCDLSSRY
DNA (cytosine-5)-methyltransferase 1, sequence (P26358 whole entry, the tested form may be a part): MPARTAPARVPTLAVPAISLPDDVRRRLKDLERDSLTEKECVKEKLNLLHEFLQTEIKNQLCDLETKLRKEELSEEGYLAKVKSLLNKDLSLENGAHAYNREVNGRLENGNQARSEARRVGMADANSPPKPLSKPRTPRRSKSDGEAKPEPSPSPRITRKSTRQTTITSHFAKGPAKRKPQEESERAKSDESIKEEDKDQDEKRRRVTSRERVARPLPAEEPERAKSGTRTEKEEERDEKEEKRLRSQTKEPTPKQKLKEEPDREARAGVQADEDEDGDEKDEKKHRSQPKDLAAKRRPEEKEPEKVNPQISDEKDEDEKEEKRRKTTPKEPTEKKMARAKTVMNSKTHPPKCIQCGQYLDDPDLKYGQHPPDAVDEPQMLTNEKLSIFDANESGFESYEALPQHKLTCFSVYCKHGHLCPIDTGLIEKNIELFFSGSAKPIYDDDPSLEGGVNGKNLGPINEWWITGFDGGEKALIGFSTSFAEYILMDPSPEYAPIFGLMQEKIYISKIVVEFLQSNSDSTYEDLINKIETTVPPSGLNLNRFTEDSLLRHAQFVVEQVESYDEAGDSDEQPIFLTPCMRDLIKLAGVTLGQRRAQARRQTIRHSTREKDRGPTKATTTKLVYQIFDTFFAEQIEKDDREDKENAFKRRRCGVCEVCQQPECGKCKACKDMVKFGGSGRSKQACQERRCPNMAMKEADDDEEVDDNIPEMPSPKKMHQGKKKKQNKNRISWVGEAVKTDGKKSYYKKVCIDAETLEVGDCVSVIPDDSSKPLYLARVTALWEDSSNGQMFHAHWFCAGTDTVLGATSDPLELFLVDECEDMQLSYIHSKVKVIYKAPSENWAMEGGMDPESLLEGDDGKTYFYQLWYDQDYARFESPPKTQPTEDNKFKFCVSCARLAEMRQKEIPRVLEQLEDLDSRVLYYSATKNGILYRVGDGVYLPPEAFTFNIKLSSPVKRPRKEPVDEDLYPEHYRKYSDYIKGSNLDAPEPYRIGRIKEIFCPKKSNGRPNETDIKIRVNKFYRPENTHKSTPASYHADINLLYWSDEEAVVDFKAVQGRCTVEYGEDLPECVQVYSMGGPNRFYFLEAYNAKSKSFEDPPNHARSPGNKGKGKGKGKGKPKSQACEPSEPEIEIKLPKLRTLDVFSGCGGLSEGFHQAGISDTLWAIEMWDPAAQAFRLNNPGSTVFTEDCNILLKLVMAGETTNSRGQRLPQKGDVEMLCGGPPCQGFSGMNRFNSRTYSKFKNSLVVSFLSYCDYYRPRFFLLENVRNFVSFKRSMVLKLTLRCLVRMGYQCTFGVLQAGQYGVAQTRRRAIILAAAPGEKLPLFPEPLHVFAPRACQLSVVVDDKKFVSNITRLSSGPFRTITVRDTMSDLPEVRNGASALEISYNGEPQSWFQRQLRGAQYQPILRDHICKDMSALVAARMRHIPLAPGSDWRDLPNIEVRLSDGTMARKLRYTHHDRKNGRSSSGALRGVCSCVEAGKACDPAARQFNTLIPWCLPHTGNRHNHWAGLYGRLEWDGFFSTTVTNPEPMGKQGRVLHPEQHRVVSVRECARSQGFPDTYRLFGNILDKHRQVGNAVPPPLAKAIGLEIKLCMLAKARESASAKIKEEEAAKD

What is called CC50 is the concentration giving 50% cytotoxicity. Take `Cc1c(CN2CCC(CO)(CCOc3ccccc3)CC2)[nH]c2c(Cl)cccc12`: the EC50 at Insulin-degrading enzyme [1] was > 54.7 µM (inactive); in the experiment on HEK293 [2], > 54.7 µM (inactive); on Melanocortin receptor 4, > 89.2 µM (inactive); on Insulin-degrading enzyme [5], 14.3 µM (inactive). Also, the CC50 in experiment [3] was 16.3 µM (active); in experiment [6], 14.5 µM (active); in experiment [7] it was 12.4 µM (active). Moreover, the results for the IC50 in the experiment “cells” and in the experiment on HEK293 [4] were 6.5 µM (active) and 22.8 µM (inactive), respectively. In addition, on X-box-binding protein 1, the “Absolute IC50 (XBP1)” value turned out to be 10 µM.
Take `CCc1ccc(/C(C)=N/NC(=O)CNC(=O)/C=C/c2ccco2)cc1`: the IC50 was 106 µM (active) in experiment [8], 6.95 µM (active) in experiment [9] and 0.844 µM (active) in experiment [10].
For the compound `Cc1ccc(NC(=O)c2ccccc2OCC(=O)c2ccc(F)cc2)cc1`, the EC50 at Melanocortin receptor 4 was > 89.2 µM (inactive).
In the case of `O=C1C(=Cc2cn(-c3ccccc3)nc2-c2ccc(OCc3ccccc3F)cc2)SC(=S)N1CCS(=O)(=O)O`, the figures for the IC50 in experiment [11] and in experiment [12] were 12.2 µM (active) and 4.12 µM (active), respectively.
On to `COC(=O)[C@@H]1COC(c2ccccc2C(F)(F)F)=N1`, for which the EC50 in experiment [13] was > 100 µM (inactive).
Same read-out and setting: with `COc1ccc(OC)c(NC(=O)CC(C)S(=O)(=O)c2ccc3c(c2)CCN3C(C)=O)c1` (stereo not given) the figure was > 100 µM (inactive).
One may read the AC50 as the concentration at which the activity in the assay is half-maximal. Regarding `C=CCOC(=O)c1[nH]c2c(c1C)C(=O)CC(c1cc(OC)c(OC)c(OC)c1)C2` (stereo not given), the AC50 is 53.5 µM (active) in [14], 1.83 µM (active) in [15] and 1.28 µM (active) in experiment [16]. Further, the IC50 at Protein Wnt-3a was 1.89 µM (active).
For `COc1ccccc1CNc1nc(NCc2cnc(C)cn2)c2sccc2n1`, the IC50 in [11] is 5.74 µM (active); in [12] it was 4.31 µM (active).
Consider `COc1ccc(CN(C)C(=O)c2cccc(NC(=O)CC3SC(N4CCCCC4)=NC3=O)c2)c(OC)c1` (stereo not given), for which the IC50 at Protein Wnt-3a was 21.7 µM (inactive).
